Patent US12569508B2, “Antimicrobial compositions and methods of use” (priority 2020, dated 2026)

Test system: PAO1 biofilm
Experiment: In vitro MBEC antibiofilm assay
Type: cell-based, P. aeruginosa
Details: 5-15 μg/mL colistin
Method: The pegs on lid of the MBEC Assay® were submerged into the bacterial suspension, with column 12 containing sterile LB broth as a negative control. The plate was incubated at 37° C. on a rotating gyrator for 24 h to form biofilm on the pegs. After 24 h, the peg lid was removed and transferred into another 96-well microtiter plate containing sterile water for 30 seconds before being transferred into a treatment plate. The peg lid in the treatment plate was incubated for 24 h at 37° C. on the rotating gyrator. In the first study, the effect of concentration variation of TOB in MO-LCNPs was determined. […] The respective controls included unloaded formulations MO-LCNP and […] at equivalent concentrations and 0.9% NaCl. […] In the second study, the difference in effect of MO- and […] compared to liposomes containing TOB was determined. […] The final concentration of MO and PHY was 0.25 mg/mL. Liposomes were prepared as described above. In the third study, TOB, AMI and GEN as unformulated solutions and loaded in MO-LCNPs were compared as treatments against PAO1 biofilms in the MBEC Assay®. The concentration of each antibiotic was 6 μg/mL. […] In all four different studies, the treatments were incubated with the PAO1 biofilm grown on the MBEC Assay® on a rotating plate at 37° C. After 24 h incubation, the peg lid was transferred to a fresh plate containing sterilized water to inhibit treatments. […]

Colistin sulfate salt
anti-biofilm effect compared to saline control: no anti-biofilm or antimicrobial effect
